Reference: patent publication US11236025B2, “Methods for improving control of insects and related compositions” (Syngenta Participations AG, priority 2013, dated 2022)
Read-outs that look alike come from different tables or passages of the source.

Key:
Agrotis ipsilon larvae = assay: Control of cutworm: greenhouse tray test on maize, soil application, larval mortality; format: in vivo; conditions: 168 h, infested 7 days after application, read-out: Corr. Mortality (%) 5 DAI
Experimental: (§1) Plastic trays (13×18×11.5 cm) with 4 holes in the bottom were filled with a filter paper and 400 mL Drench soil. 8 maize seeds (2 rows with 4 seeds each) were placed on the soil. Compound solution was applied with a track-sprayer at 200 L/ha. After drying seeds were covered with 200 mL untreated Drench soil and evened. Trays were incubated in a greenhouse chamber (25° C., 50% r.h., 14 h light (>20′000 lux)) and watered daily. 7 days after application each tray was infested with 5 (6 replicates) Agrotis ipsilon larvae. After infestation all trays were covered with a plastic lid, which was perforated with 6-9 holes for ventilation. 5 days after infestation the survived larvae were counted. Also assessed was the larval growth (size difference between compound replicates and control). TEFL=Tefluthrin.

[1] = test system: Diabrotica balteata larvae; assay: Control of rootworm: greenhouse tray test on maize, soil application, larval mortality; format: in vivo; conditions: 168 h, infested 7 days after application, read-out: Corr. Mortality (%) 5 DAI
Experimental: as §1, with “(>20,000” for “(>20′000”, “10 (3” for “5 (6”, “Diabrotica balteata” for “Agrotis ipsilon”

[2] = w/15% Nachurs 6-24-6, 25 ppm AI
[3] = w/15% Nachurs 6-24-6, 100 ppm AI
[4] = w/30% Nachurs 6-24-6, 25 ppm AI
[5] = w/30% Nachurs 6-24-6, 100 ppm AI

Cc1c(F)c(F)c(COC(=O)[C@@H]2[C@H](/C=C(\Cl)C(F)(F)F)C2(C)C)c(F)c1F (racemic) [TEFL, Tefluthrin]
mortality at 25 ppm (Agrotis ipsilon larvae; no fertilizer, 25 ppm AI): 38%
mortality at 100 ppm (Agrotis ipsilon larvae; no fertilizer, 100 ppm AI): 25%
mortality at 250 ppm (Agrotis ipsilon larvae; no fertilizer, 250 ppm AI): 71%
mortality at 500 ppm (Agrotis ipsilon larvae; no fertilizer, 500 ppm AI): 92%
mortality at 1000 ppm (Agrotis ipsilon larvae; no fertilizer, 1000 ppm AI): 100%
mortality at 25 ppm (Agrotis ipsilon larvae; [2]): 31%
mortality at 100 ppm (Agrotis ipsilon larvae; [3]): 29%
mortality at 250 ppm (Agrotis ipsilon larvae; w/15% Nachurs 6-24-6, 250 ppm AI): 79%
mortality at 500 ppm (Agrotis ipsilon larvae; w/15% Nachurs 6-24-6, 500 ppm AI): 100%
mortality at 1000 ppm (Agrotis ipsilon larvae; w/15% Nachurs 6-24-6, 1000 ppm AI): 100%
mortality at 25 ppm (Agrotis ipsilon larvae; [4]): 25%
mortality at 100 ppm (Agrotis ipsilon larvae; [5]): 29%
mortality at 250 ppm (Agrotis ipsilon larvae; w/30% Nachurs 6-24-6, 250 ppm AI): 79%
mortality at 500 ppm (Agrotis ipsilon larvae; w/30% Nachurs 6-24-6, 500 ppm AI): 96%
mortality at 1000 ppm (Agrotis ipsilon larvae; w/30% Nachurs 6-24-6, 1000 ppm AI): 100%
mortality at 25 ppm ([1]; no fertilizer, 25 ppm AI): 0%
mortality at 50 ppm ([1]; no fertilizer, 50 ppm AI): 0%
mortality at 100 ppm ([1]; no fertilizer, 100 ppm AI): 18%
mortality at 200 ppm ([1]; no fertilizer, 200 ppm AI): 86%
mortality at 400 ppm ([1]; no fertilizer, 400 ppm AI): 100%
mortality at 25 ppm [1, 2]: 4%
mortality at 50 ppm ([1]; w/15% Nachurs 6-24-6, 50 ppm AI): 14%
mortality at 100 ppm [1, 3]: 71%
mortality at 200 ppm ([1]; w/15% Nachurs 6-24-6, 200 ppm AI): 100%
mortality at 400 ppm ([1]; w/15% Nachurs 6-24-6, 400 ppm AI): 96%
mortality at 25 ppm [1, 4]: 4%
mortality at 50 ppm ([1]; w/30% Nachurs 6-24-6, 50 ppm AI): 11%
mortality at 100 ppm [1, 5]: 86%
mortality at 200 ppm ([1]; w/30% Nachurs 6-24-6, 200 ppm AI): 96%
mortality at 400 ppm ([1]; w/30% Nachurs 6-24-6, 400 ppm AI): 100%
